The target in this experiment is Sodium-dependent dopamine transporter (Rattus norvegicus, UniProt P23977). The experiment is described as follows: Binding affinity towards dopamine transporter using [3H]WIN-35428 as radioligand in rat caudate-putamen tissue. The class given is tissue-based.

SMILES strings stand for the structures.

Data on three compounds can be found in ChEMBL document CHEMBL1131005, “Synthesis and dopamine transporter affinity of the four stereoisomers of (+/-)-2-(methoxycarbonyl)-7-methyl-3-phenyl-7-azabicyclo[2.2.1]heptane” (J Med Chem, 1998).

For orientation: Ki means the dissociation constant of the complex between target and ligand, obtained from inhibition or displacement. Low values mean tighter binding, high ones weaker binding.

Sequence of Sodium-dependent dopamine transporter (P23977 whole entry): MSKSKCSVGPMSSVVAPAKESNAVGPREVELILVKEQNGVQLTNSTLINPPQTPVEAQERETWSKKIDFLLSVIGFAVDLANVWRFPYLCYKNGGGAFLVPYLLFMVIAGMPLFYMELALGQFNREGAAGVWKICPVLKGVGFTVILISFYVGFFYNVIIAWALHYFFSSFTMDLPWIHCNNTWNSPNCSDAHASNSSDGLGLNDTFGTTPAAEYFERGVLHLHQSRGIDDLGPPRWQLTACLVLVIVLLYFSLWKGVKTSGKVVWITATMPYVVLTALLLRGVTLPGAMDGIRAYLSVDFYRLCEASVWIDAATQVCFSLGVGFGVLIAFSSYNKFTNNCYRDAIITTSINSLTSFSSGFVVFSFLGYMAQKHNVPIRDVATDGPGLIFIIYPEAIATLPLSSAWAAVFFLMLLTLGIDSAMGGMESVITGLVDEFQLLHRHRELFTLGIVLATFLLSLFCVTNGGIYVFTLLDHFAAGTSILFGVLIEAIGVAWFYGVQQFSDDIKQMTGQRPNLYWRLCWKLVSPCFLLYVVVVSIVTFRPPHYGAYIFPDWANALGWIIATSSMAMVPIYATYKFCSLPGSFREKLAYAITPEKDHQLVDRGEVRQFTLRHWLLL

In the case of `COC(=O)[C@H]1C2CCC([C@H]1c1ccccc1)N2C` (stereo partly drawn), the Ki was 18.9 µM.

In turn, `COC(=O)[C@@H]1C2CCC([C@H]1c1ccccc1)N2C` (stereo partly drawn) showed a Ki of 5.62 µM. With `COC(=O)[C@@H]1C2CCC([C@@H]1c1ccccc1)N2C` (stereo partly drawn) the figure was 60.4 µM.
